Assay results as given in ChEMBL document CHEMBL5505964, “HDAC/NAMPT dual inhibitors overcome initial drug-resistance in p53-null leukemia cells” (Eur J Med Chem, 2024).

Key:
MV4-11 = assay: cells; type: functional, cell-based; conditions: Homo sapiens; for GI50: MV4-11, time 48 hrs
Histone deacetylase 4 = Histone deacetylase 4 (Homo sapiens, UniProt P56524); assay: Inhibition of C-terminal His-tagged/N-terminal GST-tagged human HDAC4 (627 to 1084 residues) expressed in baculovirus-infected Sf9 cells using Boc-Lys-(trifluoroacetyl)-AMC as substrate preincubated with enzyme for 1 hr followed by substrate addition and measured after 2 hrs by fluorescence analysis
Histone deacetylase 5 = Histone deacetylase 5 (Homo sapiens, UniProt Q9UQL6); assay: Inhibition of C-terminal His-tagged human HDAC5 catalytic domain (656 to 1122 residues) expressed in baculovirus-infected Sf9 cells using Boc-Lys-(trifluoroacetyl)-AMC as substrate preincubated with enzyme for 1 hr followed by substrate addition and measured after 2 hrs by fluorescence analysis
[1] = biological target: T1, Protein deacetylase HDAC6 (Homo sapiens, UniProt Q9UBN7); assay: Inhibition of N-terminal GST-tagged human full length recombinant HDAC6 (1 to 1215 residues) expressed in baculovirus-infected Sf9 cells using Boc-Lys-(acetyl)-AMC as substrate preincubated with enzyme for 1 hr followed by substrate addition and measured after 2 hrs by fluorescence analysis
T1 sequence (Q9UBN7 whole entry): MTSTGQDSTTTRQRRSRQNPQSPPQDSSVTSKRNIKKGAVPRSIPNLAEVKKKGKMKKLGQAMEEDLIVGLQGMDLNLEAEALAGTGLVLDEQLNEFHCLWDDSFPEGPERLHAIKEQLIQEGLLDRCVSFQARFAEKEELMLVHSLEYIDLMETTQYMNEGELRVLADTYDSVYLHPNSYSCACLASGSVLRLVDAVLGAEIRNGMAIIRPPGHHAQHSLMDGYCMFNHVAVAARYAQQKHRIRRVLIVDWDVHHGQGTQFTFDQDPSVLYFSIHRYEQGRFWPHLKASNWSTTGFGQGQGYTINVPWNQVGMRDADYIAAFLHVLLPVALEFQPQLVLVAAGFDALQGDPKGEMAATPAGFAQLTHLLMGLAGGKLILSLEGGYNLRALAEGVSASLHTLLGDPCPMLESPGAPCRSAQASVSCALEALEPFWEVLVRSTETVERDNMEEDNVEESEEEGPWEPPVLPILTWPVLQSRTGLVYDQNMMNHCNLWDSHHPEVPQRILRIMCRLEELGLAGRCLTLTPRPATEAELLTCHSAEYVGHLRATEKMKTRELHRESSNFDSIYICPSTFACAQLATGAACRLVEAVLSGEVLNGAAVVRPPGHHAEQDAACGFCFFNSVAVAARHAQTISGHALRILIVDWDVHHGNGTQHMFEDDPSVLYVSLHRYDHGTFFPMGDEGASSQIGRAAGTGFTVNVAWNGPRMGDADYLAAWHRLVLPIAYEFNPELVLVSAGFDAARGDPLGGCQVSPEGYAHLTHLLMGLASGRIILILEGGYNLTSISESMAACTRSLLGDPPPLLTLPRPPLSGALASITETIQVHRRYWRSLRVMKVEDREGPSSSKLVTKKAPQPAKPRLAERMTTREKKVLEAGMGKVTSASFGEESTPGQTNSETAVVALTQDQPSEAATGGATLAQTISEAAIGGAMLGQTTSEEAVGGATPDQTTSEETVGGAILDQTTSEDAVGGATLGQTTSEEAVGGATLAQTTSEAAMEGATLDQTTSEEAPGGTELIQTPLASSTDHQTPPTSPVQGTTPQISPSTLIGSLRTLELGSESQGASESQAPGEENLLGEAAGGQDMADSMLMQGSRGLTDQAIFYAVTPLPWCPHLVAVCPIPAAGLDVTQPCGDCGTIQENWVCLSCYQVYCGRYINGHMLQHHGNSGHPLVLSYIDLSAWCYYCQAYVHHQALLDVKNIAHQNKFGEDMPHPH

Histone deacetylase 8 = biological target: T2, Histone deacetylase 8 (Homo sapiens, UniProt Q9BY41); assay: Inhibition of C-terminal His-tagged full length human recombinant HDAC8 (1 to 377 residues) expressed in baculovirus-infected Sf9 cells using Boc-Lys-(trifluoroacetyl)-AMC as substrate preincubated with enzyme for 1 hr followed by substrate addition and measured after 2 hrs by fluorescence analysis
T2 sequence (Q9BY41 whole entry): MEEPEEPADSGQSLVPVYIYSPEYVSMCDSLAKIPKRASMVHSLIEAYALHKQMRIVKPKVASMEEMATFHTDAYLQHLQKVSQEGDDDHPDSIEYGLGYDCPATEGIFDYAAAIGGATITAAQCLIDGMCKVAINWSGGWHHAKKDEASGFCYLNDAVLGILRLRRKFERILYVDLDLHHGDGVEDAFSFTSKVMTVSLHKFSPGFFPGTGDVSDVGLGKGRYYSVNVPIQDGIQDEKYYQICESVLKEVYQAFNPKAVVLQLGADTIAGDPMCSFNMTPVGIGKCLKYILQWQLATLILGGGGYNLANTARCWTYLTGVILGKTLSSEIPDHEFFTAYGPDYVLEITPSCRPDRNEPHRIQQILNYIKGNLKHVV

Histone deacetylase 9 = Histone deacetylase 9 (Homo sapiens, UniProt Q9UKV0); assay: Inhibition of C-terminal His-tagged human recombinant HDAC9 (604 to 1066 residues) expressed in baculovirus-infected Sf9 cells using Boc-Lys-(trifluoroacetyl)-AMC as substrate preincubated with enzyme for 1 hr followed by substrate addition and measured after 2 hrs by fluorescence analysis
Histone deacetylase 11 = biological target: T3, Histone deacetylase 11 (Homo sapiens, UniProt Q96DB2); assay: Inhibition of full length human recombinant HDAC11 (1 to 347 residues) expressed in baculovirus-infected Sf9 cells using Boc-Lys-(trifluoroacetyl)-AMC as substrate preincubated with enzyme for 1 hr followed by substrate addition and measured after 2 hrs by fluorescence analysis
T3 sequence (Q96DB2 whole entry): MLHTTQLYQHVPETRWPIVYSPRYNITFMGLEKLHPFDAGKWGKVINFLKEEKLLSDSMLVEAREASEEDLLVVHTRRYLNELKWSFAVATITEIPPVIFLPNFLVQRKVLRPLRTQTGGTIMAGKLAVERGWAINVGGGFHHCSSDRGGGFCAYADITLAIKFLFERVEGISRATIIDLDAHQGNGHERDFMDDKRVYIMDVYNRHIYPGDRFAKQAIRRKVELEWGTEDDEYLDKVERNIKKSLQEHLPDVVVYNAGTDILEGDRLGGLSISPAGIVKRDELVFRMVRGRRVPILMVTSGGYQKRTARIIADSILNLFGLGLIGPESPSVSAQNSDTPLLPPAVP

HL-60 [2] = assay: Antiproliferative activity against p53-null human HL-60 cells assessed as inhibition of cell growth incubated for 48 hrs by resazurin dye based fluorescence analysis; type: functional
HL-60 [3] = assay: Antiproliferative activity against p53-null human HL-60 cells assessed as induction of cell death incubated for 48 hrs in presence of nicotinamide mononucleotide by resazurin dye based fluorescence analysis; type: functional; conditions: read-out: LD50 (the source's name)

Histone deacetylase 5, sequence (Q9UQL6 whole entry, the tested form may be a part): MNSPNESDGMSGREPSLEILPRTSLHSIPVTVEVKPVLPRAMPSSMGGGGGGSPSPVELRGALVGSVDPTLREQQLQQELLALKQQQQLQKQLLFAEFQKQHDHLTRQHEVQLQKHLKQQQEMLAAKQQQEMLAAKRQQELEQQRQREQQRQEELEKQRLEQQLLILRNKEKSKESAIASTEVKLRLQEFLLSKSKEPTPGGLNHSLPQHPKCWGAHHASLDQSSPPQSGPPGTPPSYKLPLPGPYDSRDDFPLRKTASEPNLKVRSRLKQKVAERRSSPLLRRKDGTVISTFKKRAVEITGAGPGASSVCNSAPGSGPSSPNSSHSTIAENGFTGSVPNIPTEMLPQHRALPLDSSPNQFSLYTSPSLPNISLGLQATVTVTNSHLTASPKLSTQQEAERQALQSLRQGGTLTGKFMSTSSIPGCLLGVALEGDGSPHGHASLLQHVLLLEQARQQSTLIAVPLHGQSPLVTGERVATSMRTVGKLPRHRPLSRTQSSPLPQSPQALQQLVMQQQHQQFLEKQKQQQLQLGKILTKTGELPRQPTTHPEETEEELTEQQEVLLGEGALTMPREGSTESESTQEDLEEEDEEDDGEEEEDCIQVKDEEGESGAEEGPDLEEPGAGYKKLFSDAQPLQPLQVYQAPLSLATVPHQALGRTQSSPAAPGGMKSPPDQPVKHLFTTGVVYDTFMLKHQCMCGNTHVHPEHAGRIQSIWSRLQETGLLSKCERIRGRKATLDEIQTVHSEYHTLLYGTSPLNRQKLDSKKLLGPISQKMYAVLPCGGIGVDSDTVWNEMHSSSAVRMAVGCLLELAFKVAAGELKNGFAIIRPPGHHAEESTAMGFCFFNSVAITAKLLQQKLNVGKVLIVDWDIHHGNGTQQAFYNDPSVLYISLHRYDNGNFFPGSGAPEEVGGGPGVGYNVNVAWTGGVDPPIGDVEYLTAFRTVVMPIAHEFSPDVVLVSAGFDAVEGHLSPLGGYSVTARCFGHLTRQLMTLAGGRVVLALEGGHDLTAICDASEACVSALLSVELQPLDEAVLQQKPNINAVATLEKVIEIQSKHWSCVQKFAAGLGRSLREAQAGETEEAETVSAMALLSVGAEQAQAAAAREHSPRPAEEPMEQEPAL
Histone deacetylase 9, sequence (Q9UKV0 whole entry, the tested form may be a part): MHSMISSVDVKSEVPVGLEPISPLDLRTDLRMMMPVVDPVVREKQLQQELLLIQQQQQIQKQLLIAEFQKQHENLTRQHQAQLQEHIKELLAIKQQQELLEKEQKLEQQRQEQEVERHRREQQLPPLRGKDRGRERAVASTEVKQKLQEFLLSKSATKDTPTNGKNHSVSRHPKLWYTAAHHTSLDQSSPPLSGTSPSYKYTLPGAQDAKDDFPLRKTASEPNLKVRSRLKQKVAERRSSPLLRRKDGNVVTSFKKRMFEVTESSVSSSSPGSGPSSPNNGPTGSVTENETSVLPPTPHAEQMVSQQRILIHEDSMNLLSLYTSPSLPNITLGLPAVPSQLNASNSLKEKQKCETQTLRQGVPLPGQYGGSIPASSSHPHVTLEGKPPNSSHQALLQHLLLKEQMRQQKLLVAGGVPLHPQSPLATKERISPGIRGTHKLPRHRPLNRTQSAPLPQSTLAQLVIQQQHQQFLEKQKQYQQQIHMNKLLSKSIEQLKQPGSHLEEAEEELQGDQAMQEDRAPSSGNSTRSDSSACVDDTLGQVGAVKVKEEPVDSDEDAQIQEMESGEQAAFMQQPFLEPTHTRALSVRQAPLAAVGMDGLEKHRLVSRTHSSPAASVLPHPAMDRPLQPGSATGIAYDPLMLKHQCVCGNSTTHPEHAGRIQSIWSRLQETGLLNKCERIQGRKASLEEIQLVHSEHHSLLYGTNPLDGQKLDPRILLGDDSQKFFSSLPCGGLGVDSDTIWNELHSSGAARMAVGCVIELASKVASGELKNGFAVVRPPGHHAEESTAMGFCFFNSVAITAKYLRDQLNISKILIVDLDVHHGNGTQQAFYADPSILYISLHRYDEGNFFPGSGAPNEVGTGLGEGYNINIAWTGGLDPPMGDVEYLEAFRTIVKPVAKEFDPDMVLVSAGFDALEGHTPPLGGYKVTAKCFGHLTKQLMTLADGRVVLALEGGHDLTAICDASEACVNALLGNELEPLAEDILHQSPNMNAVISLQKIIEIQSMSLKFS
Histone deacetylase 4, sequence (P56524 whole entry, the tested form may be a part): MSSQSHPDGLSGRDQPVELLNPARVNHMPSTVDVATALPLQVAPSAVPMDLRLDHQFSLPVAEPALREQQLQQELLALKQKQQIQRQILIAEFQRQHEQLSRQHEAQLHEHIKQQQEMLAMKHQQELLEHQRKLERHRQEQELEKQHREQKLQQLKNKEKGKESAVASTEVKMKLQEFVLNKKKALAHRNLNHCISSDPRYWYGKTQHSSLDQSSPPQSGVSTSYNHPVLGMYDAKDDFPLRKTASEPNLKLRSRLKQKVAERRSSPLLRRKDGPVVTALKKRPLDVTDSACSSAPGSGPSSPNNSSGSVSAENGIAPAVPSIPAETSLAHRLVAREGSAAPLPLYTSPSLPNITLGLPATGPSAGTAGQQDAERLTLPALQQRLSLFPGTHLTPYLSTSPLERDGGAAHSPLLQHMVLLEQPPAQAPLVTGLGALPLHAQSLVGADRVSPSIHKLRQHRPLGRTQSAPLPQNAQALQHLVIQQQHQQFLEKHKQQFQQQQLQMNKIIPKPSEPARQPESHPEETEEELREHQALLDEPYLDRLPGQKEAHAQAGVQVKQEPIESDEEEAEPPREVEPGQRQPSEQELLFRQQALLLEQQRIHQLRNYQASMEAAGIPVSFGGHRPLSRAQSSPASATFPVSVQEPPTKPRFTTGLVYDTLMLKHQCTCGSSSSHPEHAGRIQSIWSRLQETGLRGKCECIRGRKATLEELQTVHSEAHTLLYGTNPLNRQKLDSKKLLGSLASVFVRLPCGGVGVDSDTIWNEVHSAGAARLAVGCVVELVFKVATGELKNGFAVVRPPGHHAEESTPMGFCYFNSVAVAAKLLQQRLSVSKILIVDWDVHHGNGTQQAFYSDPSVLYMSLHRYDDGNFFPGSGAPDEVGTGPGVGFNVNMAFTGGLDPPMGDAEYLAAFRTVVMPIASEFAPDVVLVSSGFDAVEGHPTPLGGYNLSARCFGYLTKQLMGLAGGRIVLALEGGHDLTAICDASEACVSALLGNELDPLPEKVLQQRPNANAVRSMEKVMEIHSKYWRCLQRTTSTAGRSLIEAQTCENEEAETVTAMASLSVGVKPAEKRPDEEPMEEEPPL

Compound: CCCNNC(=O)c1ccc(CNC(=O)/C=C/c2cccnc2)cc1
- IC50 (MV4-11; MV4-11, 48 h): 0.0608 µM
- GI50 (MV4-11): 0.0383 µM
- IC50 (Histone deacetylase 4): > 10 µM
- IC50 (Histone deacetylase 5): > 10 µM
- IC50 [1]: > 10 µM
- IC50 (Histone deacetylase 8): > 10 µM
- IC50 (Histone deacetylase 9): > 10 µM
- IC50 (Histone deacetylase 11): > 10 µM
- GI50 (HL-60 [2]): 0.0422 µM
- CC50 (HL-60 [3]): > 100 µM

Compound: CCCNNC(=O)c1ccc(CNC(=O)c2cc3cnccc3[nH]2)cc1
- GI50 (MV4-11): 0.0236 µM
- IC50 (Histone deacetylase 4): > 10 µM
- IC50 (Histone deacetylase 5): > 10 µM
- IC50 [1]: > 10 µM
- IC50 (Histone deacetylase 8): > 10 µM
- IC50 (Histone deacetylase 9): > 10 µM
- IC50 (Histone deacetylase 11): > 10 µM
- GI50 (HL-60 [2]): 0.0512 µM
- CC50 (HL-60 [3]): > 100 µM
